Drawing on US20250296959A1, “B7-H3 TARGETING PEPTIDES AND CONSTRUCTS THEREOF” (Mariana Oncology Inc., priority 2024, published 2025), this text covers Kd for five molecules.

As a reminder, the Kd is the equilibrium constant for the complex coming apart. A lower Kd goes with higher affinity.

This assay addresses T1, human 4lg B7-H3 (Homo sapiens, UniProt Q5ZPR3).
T1 sequence (Q5ZPR3 29-534): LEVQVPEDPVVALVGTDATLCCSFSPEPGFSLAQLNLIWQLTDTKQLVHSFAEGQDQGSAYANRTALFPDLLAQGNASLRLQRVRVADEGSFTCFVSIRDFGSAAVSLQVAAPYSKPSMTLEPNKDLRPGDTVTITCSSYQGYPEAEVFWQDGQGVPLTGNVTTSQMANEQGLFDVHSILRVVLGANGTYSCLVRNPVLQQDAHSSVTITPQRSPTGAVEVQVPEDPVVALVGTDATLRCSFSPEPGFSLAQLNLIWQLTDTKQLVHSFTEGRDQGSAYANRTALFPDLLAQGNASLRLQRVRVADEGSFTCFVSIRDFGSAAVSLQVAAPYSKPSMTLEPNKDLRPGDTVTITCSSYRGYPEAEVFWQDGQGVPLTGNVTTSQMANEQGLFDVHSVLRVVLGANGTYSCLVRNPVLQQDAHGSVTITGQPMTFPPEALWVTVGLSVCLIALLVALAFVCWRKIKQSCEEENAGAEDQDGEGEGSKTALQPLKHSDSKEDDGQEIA
In words: Affinity determination by surface plasmon resonance (SPR) to 4Ig B7-H3. Conditions: 4Ig B7-H3.

Where [1] appears, read: SPR KD—25° C., 25° C. flow cell temperature.

The structures appear in SMILES notation. Positions of bridges follow the written chain, without caps; N, C: chain ends. Non-standard residues stand in square brackets, D forms with d. Residues, ends and D or L forms follow the SMILES beside them. *: point of attachment. Ala(1-CH2CO2H-4-piperidyl) = N[C@@H](CC1CCN(CC(=O)O)CC1)C(=O)O; DOTA = O=C(O)CN1CCN(CC(=O)O)CCN(CC(=O)*)CCN(CC(=O)O)CC1; Trp(5-F) = N[C@@H](Cc1c[nH]c2ccc(F)cc12)C(=O)O; Val(3-OH) = CC(C)(O)[C@H](N)C(=O)O; tBuAla = CC(C)(C)C[C@H](N)C(=O)O; 4Pal = N[C@@H](Cc1ccncc1)C(=O)O; Chg = N[C@H](C(=O)O)C1CCCCC1; hLeu = CC(C)CC[C@H](N)C(=O)O; hSer = N[C@@H](CCO)C(=O)O; Nle = CCCC[C@H](N)C(=O)O

Regarding `CC(=O)N[C@@H](CCC(C)C)C(=O)N[C@@H](Cc1ccc(O)cc1)C(=O)N[C@H]1CSSC[C@@H](C(=O)N[C@@H](Cc2c[nH]c3ccccc23)C(=O)N[C@@H](Cc2ccccc2)C(=O)N[C@H](C(=O)N[C@H](CCCCNC(=O)CN2CCN(CC(=O)O)CCN(CC(=O)O)CCN(CC(=O)O)CC2)C(N)=O)[C@@H](C)O)NC(=O)[C@H](Cc2ccc(O)cc2)NC(=O)[C@H](C2CCCCC2)NC(=O)[C@H](CC(=O)O)NC(=O)[C@H](Cc2ccncc2)NC(=O)[C@H](CCCCN)NC(=O)CNC(=O)[C@H](C(C)C)NC1=O` [compound 153, Ac-hLeu-Y-C-V-G-K-4PyA-D-ChG-Y-C-W-F-Thr-dLys(DOTA)-CONH2] (Ac-[hLeu]YCVGK[4Pal]D[Chg]YCWFT[dK](DOTA)-NH2; disulfide 3-11), the Kd under setting [1] is below 0.001 µM.

As for `CC(=O)N[C@@H](CCC(C)C)C(=O)N[C@@H](Cc1ccc(O)cc1)C(=O)N[C@H]1CSSC[C@@H](C(=O)N[C@@H](Cc2c[nH]c3ccc(F)cc23)C(=O)N[C@@H](Cc2ccccc2)C(=O)N[C@H](C(=O)N[C@H](CCCCNC(=O)CN2CCN(CC(=O)O)CCN(CC(=O)O)CCN(CC(=O)O)CC2)C(N)=O)[C@@H](C)O)NC(=O)[C@H](Cc2ccc(O)cc2)NC(=O)[C@H](C(C)C)NC(=O)[C@H](CC(=O)O)NC(=O)[C@H](Cc2ccc(O)cc2)NC(=O)[C@H](CCCCN)NC(=O)CNC(=O)[C@H](CC(C)(C)C)NC1=O` [compound 174, Ac-hLeu-Y-C-tBuAla-G-K-Y-D-V-Y-C-5FW-F-Thr-dLys(DOTA)-CONH2] (Ac-[hLeu]YC[tBuAla]GKYDVYC[Trp(5-F)]FT[dK](DOTA)-NH2; disulfide 3-11), under setting [1], the Kd was 0.01 to 0.1 µM.

Under setting [1], `CC(=O)N[C@@H](CCC(C)C)C(=O)N[C@@H](Cc1ccc(O)cc1)C(=O)N[C@H]1CSSC[C@@H](C(=O)N[C@@H](Cc2c[nH]c3ccc(F)cc23)C(=O)N[C@@H](Cc2ccccc2)C(=O)N[C@H](C(=O)N[C@H](CCCCNC(=O)CN2CCN(CC(=O)O)CCN(CC(=O)O)CCN(CC(=O)O)CC2)C(N)=O)[C@@H](C)O)NC(=O)[C@H](Cc2ccc(O)cc2)NC(=O)[C@H](C(C)C)NC(=O)[C@H](CC(=O)O)NC(=O)[C@H](CCO)NC(=O)[C@H](CCCCN)NC(=O)CNC(=O)[C@H](C(C)C)NC1=O` [compound 199, Ac-hLeu-Y-C-V-G-K-hSer-D-V-Y-C-5FW-F-Thr-dLys(DOTA)-CONH2] (Ac-[hLeu]YCVGK[hSer]DVYC[Trp(5-F)]FT[dK](DOTA)-NH2; disulfide 3-11) displayed a Kd of 0.001 to 0.01 µM.

As for `CCCC[C@@H]1NC(=O)[C@H](CC(=O)O)NC(=O)[C@H](Cc2ccc(O)cc2)NC(=O)[C@H](CCCCN)NC(=O)CNC(=O)[C@H](C(C)C)NC(=O)[C@@H](NC(=O)[C@H](Cc2ccc(O)cc2)NC(=O)[C@H](CCC(C)C)NC(C)=O)CSSC[C@@H](C(=O)N[C@@H](Cc2c[nH]c3ccc(F)cc23)C(=O)N[C@@H](Cc2ccccc2)C(=O)N[C@H](C(=O)N[C@H](CCCCNC(=O)CN2CCN(CC(=O)O)CCN(CC(=O)O)CCN(CC(=O)O)CC2)C(N)=O)[C@@H](C)O)NC(=O)[C@H](Cc2ccc(O)cc2)NC1=O` [compound 186, Ac-hLeu-Y-C-V-G-K-Y-D-Nle-Y-C-5FW-F-Thr-dLys(DOTA)-CONH2] (Ac-[hLeu]YCVGKYD[Nle]YC[Trp(5-F)]FT[dK](DOTA)-NH2; disulfide 3-11), the Kd under setting [1] fell in the range of 0.001 to 0.01 µM.

Consider `CC[C@H](C)[C@@H]1NC(=O)[C@@H](NC(=O)[C@H](Cc2ccc(O)cc2)NC(=O)[C@H](CCC(C)C)NC(C)=O)CSSC[C@@H](C(=O)N[C@@H](Cc2c[nH]c3ccc(F)cc23)C(=O)N[C@@H](Cc2ccccc2)C(=O)N[C@H](C(=O)O)C(C)(C)O)NC(=O)[C@H](Cc2ccc(O)cc2)NC(=O)[C@H](C(C)C)NC(=O)[C@H](CC(=O)O)NC(=O)[C@H](CC2CCN(CC(=O)O)CC2)NC(=O)[C@H](CCCCNC(=O)CN2CCN(CC(=O)O)CCN(CC(=O)O)CCN(CC(=O)O)CC2)NC(=O)CNC1=O` [compound 324, Ac-hLeu-Y-C-Ile-G-Lys(DOTA)-Pip(CH2COOH)Ala-D-V-Y-C-5FW-F-hydroxyVal-COOH] (Ac-[hLeu]YCIGK(DOTA)[Ala(1-CH2CO2H-4-piperidyl)]DVYC[Trp(5-F)]F[Val(3-OH)]-OH; disulfide 3-11), for which the Kd (SPR KD—37° C., 37° C. flow cell temperature) fell in the range of 0.01 to 0.1 µM.
